As usually defined, the IC50 is the point on the concentration scale where inhibition reaches its midpoint.

Experimental findings from patent US20220380374A1, “1,4-DIHYDROBENZO[D]PYRAZOLO[3,4-F][1,3]DIAZEPINE DERIVATIVES AND RELATED COMPOUNDS AS LRRK2, NUAK1 AND/OR TYK2 KINASE MODULATORS FOR THE TREATMENT OF E.G. AUTOIMMUNE DISEASE” (Origenis GMBH, priority 2019, published 2022) are described below.

The target of assay [1] is T1, wt human TYK2, catalytic site (Homo sapiens, UniProt P29597).
T1 construct: 2 nM wt human TYK2, catalytic site (SignalChem/CAN); purchased SignalChem/CAN
T1 sequence (P29597 897-1176 limits assumed): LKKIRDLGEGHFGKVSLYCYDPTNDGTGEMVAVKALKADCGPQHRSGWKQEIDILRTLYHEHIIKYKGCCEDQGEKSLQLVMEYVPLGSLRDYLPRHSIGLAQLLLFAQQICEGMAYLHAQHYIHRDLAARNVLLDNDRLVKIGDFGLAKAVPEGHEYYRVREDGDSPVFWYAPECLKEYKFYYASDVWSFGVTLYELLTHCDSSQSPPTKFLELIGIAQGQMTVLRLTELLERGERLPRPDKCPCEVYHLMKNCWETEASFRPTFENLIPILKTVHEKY
Description: HTRF KinEASE assay, TYK2. The assay is classed as biochemical. The conditions noted are these: 1 μM ATP; read-out: IC50, inhibitory activity toward TYK2. In short, it runs like this:
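2 nM wt human TYK2 catalytic domain with 1 μM biotinylated TK substrate and 1 μM ATP in 1× kinase buffer was incubated ≥30 min at room temperature. Antibody and streptavidin-XL665 were added, and HTRF emission ratios were read after 60 min.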
For orientation: TR-FRET usually uses a lanthanide donor and a delayed reading to cut background.

The target of assay [2] is T2, wt human NUAK1, full length (Homo sapiens, UniProt O60285).
T2 construct: 8 nM wt human NUAK1, full length (ThermoFisher/USA); purchased ThermoFisher/USA
T2 sequence (O60285 1-661): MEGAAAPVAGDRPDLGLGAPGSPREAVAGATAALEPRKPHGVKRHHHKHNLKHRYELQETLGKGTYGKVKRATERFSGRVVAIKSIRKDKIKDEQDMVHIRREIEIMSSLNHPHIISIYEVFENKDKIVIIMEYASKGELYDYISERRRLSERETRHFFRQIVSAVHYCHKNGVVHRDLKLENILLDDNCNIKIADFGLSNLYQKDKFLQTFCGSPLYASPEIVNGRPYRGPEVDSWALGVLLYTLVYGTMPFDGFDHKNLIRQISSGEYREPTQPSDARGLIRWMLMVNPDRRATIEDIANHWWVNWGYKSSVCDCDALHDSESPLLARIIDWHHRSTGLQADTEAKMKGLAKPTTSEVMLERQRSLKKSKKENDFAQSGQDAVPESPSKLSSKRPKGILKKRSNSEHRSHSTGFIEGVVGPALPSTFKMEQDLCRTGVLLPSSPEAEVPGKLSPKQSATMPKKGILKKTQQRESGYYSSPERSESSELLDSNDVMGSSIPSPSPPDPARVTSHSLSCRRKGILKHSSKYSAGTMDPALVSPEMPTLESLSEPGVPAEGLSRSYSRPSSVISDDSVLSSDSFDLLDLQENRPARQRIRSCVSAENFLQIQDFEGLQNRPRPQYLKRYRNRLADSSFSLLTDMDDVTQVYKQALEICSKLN
Description: TR-FRET LanthaScreen Eu Kinase Binding Assay, NUAK1. The conditions noted are these: 5 nM Kinase Tracer 236; read-out: IC50, inhibitory activity toward NUAK1. In short, it runs like this: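 TR-FRET tracer-displacement binding with 8 nM full-length wild-type human NUAK1, 2 nM Eu-anti-His antibody and 5 nM Kinase Tracer 236 in 1× Kinase Buffer A (final). Compound, kinase/antibody and tracer incubated 1 h at room temperature; emission ratios analysed per kit protocol.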

Structures are written as SMILES. Bounds are passed on as bounds.

For the compound `O=C(O)c1cc2c(cc1Cl)-c1[nH]ncc1N=C(c1c(F)cccc1F)N2` [Compound 198, 9-chloro-5-(2,6-difluorophenyl)-1,6-dihydrobenzo[d]pyrazolo[3,4-f][1,3]diazepine-8-carboxylic acid], the IC50 in assay [1] was in the range of 10 to 100 nM; in assay [2] it was 100 to 1000 nM.
The corresponding values for `CCNC(=O)c1cc2c(cc1Cl)-c1n[nH]cc1N=C(c1c(F)cccc1F)N2` [Compound 200, 9-chloro-5-(2,6-difluorophenyl)-N-ethyl-2,6-dihydrobenzo[d]pyrazolo[3,4-f][1,3]diazepine-8-carboxamide] are 10 to 100 nM and 10 to 100 nM.
For the compound `CC(C)(C)NC(=O)c1cc2c(cc1Cl)-c1n[nH]cc1N=C(c1c(F)cccc1F)N2` [Compound 201, N-(tert-butyl)-9-chloro-5-(2,6-difluorophenyl)-2,6-dihydrobenzo[d]pyrazolo[3,4-f][1,3]diazepine-8-carboxamide], the IC50 in assay [1] lay in the range of 10 to 100 nM; in assay [2] it was 100 to 1000 nM.
The corresponding values for `O=C(NCC(F)(F)F)c1cc2c(cc1Cl)-c1n[nH]cc1N=C(c1c(F)cccc1F)N2` [Compound 202, 9-chloro-5-(2,6-difluorophenyl)-N-(2,2,2-trifluoroethyl)-2,6-dihydrobenzo[d]pyrazolo[3,4-f][1,3]diazepine-8-carboxamide] are 10 to 100 nM and 10 to 100 nM.
The corresponding values for `Fc1cc(F)c(C2=Nc3cn[nH]c3-c3cc(F)ccc3N2)c(F)c1` [Compound 203, 9-fluoro-5-(2,4,6-trifluorophenyl)-1,6-dihydrobenzo[d]pyrazolo[3,4-f][1,3]diazepine] are 100 to 1000 nM and 10 to 100 nM.
The corresponding values for `Fc1cccc(F)c1C1=Nc2cn[nH]c2-c2cc3c(cc2N1)OCO3` [Compound 210, 5-(2,6-difluorophenyl)-1,6-dihydro-[1,3]dioxolo[4′,5′:4,5]benzo[1,2-d]pyrazolo[3,4-f][1,3]diazepine] are 10 to 100 nM and 10 to 100 nM.
As to `CCNC(=O)c1cc2c(cc1F)-c1n[nH]cc1N=C(c1c(F)cccc1F)N2` [Compound 211, 5-(2,6-difluorophenyl)-N-ethyl-9-fluoro-2,6-dihydrobenzo[d]pyrazolo[3,4-f][1,3]diazepine-8-carboxamide], the IC50 in assay [1] and in assay [2] was 10 to 100 nM each time.
For `Fc1ccc2c(c1)-c1n[nH]cc1NC(c1c(F)cc(OC(F)(F)F)cc1F)=N2` [Compound 214, 5-(2,6-difluoro-4-(trifluoromethoxy)phenyl)-9-fluoro-2,4-dihydrobenzo[d]pyrazolo[3,4-f][1,3]diazepine], the IC50 in assay [1] and in assay [2] was 100 to 1000 nM throughout.
With `Fc1ccc2c(c1)-c1[nH]ncc1N=C(c1c(F)cc(OC(F)F)cc1F)N2` [Compound 215, 5-(4-(difluoromethoxy)-2,6-difluorophenyl)-9-fluoro-1,6-dihydrobenzo[d]pyrazolo[3,4-f][1,3]diazepine], the figures for the IC50 in assay [1] and in assay [2] were 100 to 1000 nM and 10 to 100 nM, respectively.
The corresponding values for `O=C(NCCF)c1cc2c(cc1F)-c1n[nH]cc1N=C(c1c(F)cccc1F)N2` [Compound 216, 5-(2,6-difluorophenyl)-9-fluoro-N-(2-fluoroethyl)-2,6-dihydrobenzo[d]pyrazolo[3,4-f][1,3]diazepine-8-carboxamide] are 10 to 100 nM and 10 to 100 nM.
The matching figures for `Cc1ccc2c(c1)-c1n[nH]cc1NC(c1c(F)ccc(C(F)(F)F)c1F)=N2` [Compound 217, 5-(2,6-difluoro-3-(trifluoromethyl)phenyl)-9-methyl-2,4-dihydrobenzo[d]pyrazolo[3,4-f][1,3]diazepine]: 100 to 1000 nM and 100 to 1000 nM.
The matching figures for `Nc1ncc2c(n1)N=C(c1c(F)cccc1F)Nc1c[nH]nc1-2` [Compound 218, 5-(2,6-difluorophenyl)-2,4-dihydropyrazolo[4,3-d]pyrimido[5,4-f][1,3]diazepin-8-amine]: 10 to 100 nM and 10 to 100 nM.
For the compound `CN1CCN(c2ncc3c(n2)N=C(c2c(F)cccc2F)Nc2c[nH]nc2-3)CC1` [Compound 219], the figures for the IC50 in assay [1] and in assay [2] were 10 to 100 nM and 100 to 1000 nM, respectively.
The matching figures for `Fc1cc2c(cc1OC1CCOCC1)N=C(c1c(F)cccc1F)Nc1c[nH]nc1-2` [Compound 220, 5-(2,6-difluorophenyl)-9-fluoro-8-((tetrahydro-2H-pyran-4-yl)oxy)-2,4-dihydrobenzo[d]pyrazolo[3,4-f][1,3]diazepine]: 10 to 100 nM and 100 to 1000 nM.
The corresponding values for `Fc1cc2c(cc1OC1CCOCC1)N=C(c1c(F)cccc1Cl)Nc1c[nH]nc1-2` [Compound 221, 5-(2-chloro-6-fluorophenyl)-9-fluoro-8-((tetrahydro-2H-pyran-4-yl)oxy)-2,4-dihydrobenzo[d]pyrazolo[3,4-f][1,3]diazepine] are < 10 nM and 100 to 1000 nM.
On to `Fc1cc2c(cc1OC1CCOCC1)N=C(c1c(Cl)cccc1Cl)Nc1c[nH]nc1-2` [Compound 222, 5-(2,6-dichlorophenyl)-9-fluoro-8-((tetrahydro-2H-pyran-4-yl)oxy)-2,4-dihydrobenzo[d]pyrazolo[3,4-f][1,3]diazepine], for which the IC50 in assay [1] was < 10 nM; in assay [2], 100 to 1000 nM.
The matching figures for `Fc1cc2c(cc1OC1CCOCC1)N=C(c1c(F)cccc1C(F)(F)F)Nc1c[nH]nc1-2` [Compound 223, 9-fluoro-5-(2-fluoro-6-(trifluoromethyl)phenyl)-8-((tetrahydro-2H-pyran-4-yl)oxy)-2,4-dihydrobenzo[d]pyrazolo[3,4-f][1,3]diazepine]: 10 to 100 nM and 100 to 1000 nM.
The matching figures for `Fc1cc2c(cc1-c1cccnn1)N=C(c1c(F)cccc1F)Nc1c[nH]nc1-2` [Compound 225, 5-(2,6-difluorophenyl)-9-fluoro-8-(pyridazin-3-yl)-2,4-dihydrobenzo[d]pyrazolo[3,4-f][1,3]diazepine]: 10 to 100 nM and 10 to 100 nM.
The corresponding values for `Fc1cc2c(cc1-c1ccnnc1)N=C(c1c(F)cccc1F)Nc1c[nH]nc1-2` [Compound 226, 5-(2,6-difluorophenyl)-9-fluoro-8-(pyridazin-4-yl)-2,4-dihydrobenzo[d]pyrazolo[3,4-f][1,3]diazepine] are < 10 nM and < 10 nM.
For the compound `Fc1cc2c(cc1-c1cccnn1)N=C(c1c(Cl)cccc1Cl)Nc1c[nH]nc1-2` [Compound 227, 5-(2,6-dichlorophenyl)-9-fluoro-8-(pyridazin-3-yl)-2,4-dihydrobenzo[d]pyrazolo[3,4-f][1,3]diazepine], the results for the IC50 in assay [1] and in assay [2] were 10 to 100 nM and 100 to 1000 nM, respectively.
The matching figures for `Fc1cc2c(cc1-c1cccnn1)N=C(c1c(F)cccc1Cl)Nc1c[nH]nc1-2` [Compound 228, 5-(2-chloro-6-fluorophenyl)-9-fluoro-8-(pyridazin-3-yl)-2,4-dihydrobenzo[d]pyrazolo[3,4-f][1,3]diazepine]: < 10 nM and 10 to 100 nM.
With `Fc1cc2c(cc1-c1ccnnc1)N=C(c1c(Cl)cccc1Cl)Nc1c[nH]nc1-2` [Compound 229, 5-(2,6-dichlorophenyl)-9-fluoro-8-(pyridazin-4-yl)-2,4-dihydrobenzo[d]pyrazolo[3,4-f][1,3]diazepine], the IC50 in assay [1] is < 10 nM; in assay [2], 100 to 1000 nM.
The matching figures for `Fc1cc2c(cc1-c1ccnnc1)N=C(c1c(F)cccc1Cl)Nc1c[nH]nc1-2` [Compound 230, 5-(2-chloro-6-fluorophenyl)-9-fluoro-8-(pyridazin-4-yl)-2,4-dihydrobenzo[d]pyrazolo[3,4-f][1,3]diazepine]: < 10 nM and 10 to 100 nM.
With `Fc1cc2c(cc1-c1ccccc1)N=C(c1c(F)cccc1F)Nc1c[nH]nc1-2` [Compound 231, 5-(2,6-difluorophenyl)-9-fluoro-8-phenyl-2,4-dihydrobenzo[d]pyrazolo[3,4-f][1,3]diazepine], the IC50 in assay [1] and in assay [2] was 10 to 100 nM in each case.
As to `Fc1ccccc1-c1ccc2c(c1)N=C(c1c(F)cccc1F)Nc1c[nH]nc1-2` [Compound 233, 5-(2,6-difluorophenyl)-8-(2-fluorophenyl)-2,4-dihydrobenzo[d]pyrazolo[3,4-f][1,3]diazepine], the IC50 in assay [1] and in assay [2] was 10 to 100 nM in each case.
